# Measured values published in patent publication US20200230205A1, “COMPOSITIONS AND METHODS FOR TREATING MYELIN DISORDERS” (CASE WESTERN RESERVE UNIVERSITY, priority 2017, published 2020).
# Assays:
# [1] = test system: organotypic cerebellar slice cultures; assay: LPC-induced demyelination in mouse cerebellar slice cultures; assay type: cell-based
# Excerpt: We carried out the cerebellar slice culture method as described previously (Zhang, H., et al. Central nervous system remyelination in culture—A tool for multiple sclerosis research. Experimental Neurology 230, 138-148 (2011)). Briefly, 300 μm-thick cerebellar slices were cut from P10-12 mouse cerebellum using a Leica vibrating microtome (Leica, VT1000S) and cultured in medium containing 50% basal medium eagle medium, 25% Heat-inactivated horse serum, 25% Hank's solution, 2.5% glucose, 1% glutamine and penicillin-streptomycin. After 4 days in vitro (DIV), 0.5 mg/ml LPC were added for 17-18h to induce demyelination. Slices were then incubated with 2.5 μM ISP for 8 days. For GM6001 experiments, 25 μM GM6001 (Tocris) and/or 2.5 μM ISP or SISP was incubated for 9 days. Remyelination was examined by semi-quantitative Western blot of MBP and immunofluorescence stain of MBP and NeuF200.
# Slices were fixed with 4% PFA, delipidated, and washed three times in PBS, blocked in PBS containing 0.1% Triton X-100 and 5% normal goat serum and incubated with anti-MBP (SMI-99P, Covance, 1:300), and anti-NeuF200 (N4142, Sigma, 1:250) antibodies overnight at 4° C. The slices were then washed in PBS and incubated in Alexa Fluor-conjugated secondary antibodies (1:500, invitrogen) for 2h. Slices were mounted in Vectashield mounting medium with DAPI (Vector Laboratories) and analyzed using Leica DFC500 fluorescence microscope.
# [2] = test system: LPC-demyelinated mice; assay: Lysolecithin (LPC)-induced focal demyelination of the spinal cord in mice; assay type: in vivo, mouse
# Method: 12-week-old C57BL/6 male mice were anaesthetized using isoflurane and a laminectomy was performed. […] of 1% LPC was infused into the dorsal column between T11 and T12 spinal cord at a rate of 0.25 μl/min. The needle was removed after a delay of 5 min to minimize back flow and the lesion closed. […] The mice were euthanized at day 7, 14 and 21 after the laminectomy separately. Spinal cords were dissected for further western blot, histology and ultrastructural analysis. Control animals received an equivalent injection of saline, and tissues were collected according to the same paradigm. […] Lesion sizes were determined by staining of serial sections with eriochrome cyanine staining.
# For spinal cord sections, 20 μm coronal sections were incubated in LFB solution in 56° C. overnight and then rinsed sequentially with 95% alcohol and distilled water. The sections were then in 0.1% lithium carbonate solution and followed dehydration with a series of gradated ethanol, cleared with Histoclear and mounted. A set of serial matched sections were imaged and analyzed. Images (5 to 6 sections/animal) were captured under light microscope. The demyelinated areas (lack of LFB staining) were quantified using ImageJ software. For EAE sections, demyelinated areas were measured and represented as a percentage of total area of spinal cord. For sections of LPC model, lesion volumes were calculated by the lesion area from serial sections throughout the entire lesion based on the equation for volume of cylinder (V=lesion area×length of lesion).
# Mice were anesthetized with avertin and perfusion with PBS and 4% paraformaldehyde (PFA). Brain or spinal cord were dissected and post-fixed in 4% PFA overnight at 4° C. and equilibrated in 20% sucrose. 20 μm-thick sections were pretreated with Reveal Decloaker Solution (RV 1000M, Biocare Medical) for antigen retrieval according to the manufacturer's instructions. […] For each staining, at least 3 individual animals/group were examined and images were captured with a Leica DFC500 fluorescence microscope. Staining was quantified using Image J software (US National Instisutes of Health, USA). Fluorescence intensity was calculated as percentages of the mean value of the naïve controls.
# For ultrastructural analyses of myelination, anesthetized animals were perfused with 2% glutaraldehyde/4% paraformaldehyde in 0.1 M sodium carcodylate buffer, PH7.4 (Electron Microscopy Sciences). Lesioned areas of the LPC or EAE-induced spinal cords from ISP-treated or control animals were dissected and post-fixed in 1% OsO4 for 2 hrs. Coronal sections ([…]) of spinal cord or brain containing corpus callosum were prepared (Leica, Vibratome), dehydrated, stained with saturated uranyl acetate and embedded in a Poly/Bed812 resin (Polysciences Inc.). The 1 μm-thick sections were cut and stained with toluidine blue, and matched areas were selected for EM analysis. For ultrastructure analysis, ultrathin sections (0.1 μm) were cut and visualized using an electron microscope (JEOL100CX) at 80 kV. G-ratios were calculated from at least 50-100 randomly selected myelinated axons by measuring the myelin thickness of the inner and outer diameter of the myelin sheath.
# [3] = 14 dpl, given together with ISP, vs LPC+ISP
# [4] = 7 dpl, lesion epicenter, ISP started immediately
compound,measurement,setting,value
"CCCCCCCC/C=C\CCCCCCCC(=O)NO [OA-Hy, reference compound]",colocalization of MBP and neurofilament+ axons,"[1]; 25 μM GM6001 or 100 nM OA-Hy in conjunction with 2.5 μM ISP, 9 days",decreased
same,CS56 immunoreactivity,[2]; [3],concomitant increase in CS56 immunoreactivity
same,Olig2+ OPCs in the lesion epicenter,[2]; [3],decreased accumulation
same,"lesion volume, eriochrome cyanine myelin staining","[2]; 18 dpl, MMP-2 inhibition without ISP, vs vehicle control",increased the lesion volume
same,effect on ISP-enhanced remyelination (lesion volume),"[2]; 18 dpl, given together with ISP",attenuated the enhanced remyelinating effects of ISP
GRKKRRQRRRCDMAEHMERLKANDSLKLSQEYESI [ISP],MBP-neurofilament colocalization,"[1]; 2.5 μM ISP for 9 days after LPC, vs control",significantly increased
same,remyelination (MBP and NF200 colocalization),"[1]; 2.5 μM ISP, 8 div after LPC, vs vehicle",increased remyelination
same,aggrecan (Cat301) expression vs vehicle,[1]; 4 div,similar
same,aggrecan (Cat301) presence,[1]; 8 div,decrease in aggrecan presence
same,CSPG expression vs vehicle,[1]; 14 div,greater CSPG decrease
same,"remyelination (MBP and NF200 colocalization, western blot)","[1]; ISP, 14 div after LPC",abundant remyelinated axons
same,Olig2+/Ki67+ cells,[2]; 7 dpl vs vehicle,no differences
same,percentage of Olig2+ OPCs in lesions,[2]; 7 dpl vs vehicle,significantly increased
same,lesion volume (LFB),"[2]; 7 dpl, ISP 20 μg/day subcutaneous from 1 day post LPC, vehicle 1.508±0.069",1.535±0.058 mm^3
same,"CSPG expression (CS56, Cat301)","[2]; 7 dpl, ISP started immediately upon LPC injection, 7 days",significantly reduced
same,MBP myelin protein expression vs control,[2]; [4],no change
same,activated microglia (Iba1) vs control,[2]; [4],no change
same,reactive astrocytes (GFAP) vs control,[2]; [4],no change
same,"MBP expression, western blot",[2]; 14 dpl,increased expression of MBP
same,CSPGs (CS56 and Cat301) immunostaining,[2]; 14 dpl vs controls,quicker reduction of CSPGs
same,lesion volume (LFB),"[2]; 14 dpl, vehicle 1.035±0.06",0.613±0.043 mm^3
same,lesion volume (LFB),"[2]; 21 dpl, vehicle 0.738±0.027",0.2±0.041 mm^3
same,percentage of CC1+ oligodendrocytes in lesions,"[2]; LPC-injected animals, 14 dpl",significantly enhanced
same,"MMP-2 expression in the LPC-injected site (immunohistochemistry, western blot)","[2]; spinal cord, vs LPC vehicle",markedly enhanced
